Molecular target: T1, OpuAC (free / soluble substrate-binding domain) (Lactococcus lactis, UniProt Q7DAU8, N367C/N423C)
T1 sequence (Q7DAU8 320-573 N367C/N423C): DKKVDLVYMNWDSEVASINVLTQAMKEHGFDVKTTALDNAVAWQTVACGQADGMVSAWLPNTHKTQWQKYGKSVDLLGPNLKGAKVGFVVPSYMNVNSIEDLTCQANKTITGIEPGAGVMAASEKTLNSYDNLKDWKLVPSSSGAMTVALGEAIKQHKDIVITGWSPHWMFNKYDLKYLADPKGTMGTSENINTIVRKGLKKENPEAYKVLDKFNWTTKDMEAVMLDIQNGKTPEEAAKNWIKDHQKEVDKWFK
Assay: smFRET

**Q.** With `C[N+](C)(C)CC(=O)[O-]` [GB, glycine betaine] as the compound, how does the Kd read?
**A.** ~6 µM
